Patent US12344610B2, “APOL1 inhibitors and methods of use” (Maze Therapeutics, Inc., priority 2022, dated 2025)

Legend:
Type in all cases: cell-based
[1] = system: HEK293 cells overexpressing APOL1 G2; assay: APOL1 G2 HEK293 cell rescue assay (reversal of cell death caused by overexpression of APOL1); conditions: geometric mean of at least 2 assay runs, † = single assay run
Protocol: Unless otherwise specified, EC50 values are reported as the geometric mean of at least 2 assay runs on separate days. Each run represents the average of a technical replicate, where each compound was assayed twice in the same plate. A superscript t symbol indicates a value from the average of a technical replicate from a single assay run, where each compound was assayed twice in the same plate. Compounds in Table 40 are referred to by the corresponding Compound Number in Table 1, which is also referred to in the synthetic examples. When one or more of the numbered compounds are identified by stereochemistry (for example, (R)- or (S)-), the specific stereoisomer for which data is provided in Table 40 may be identified by the elution order of such compound as described in the synthetic examples. Absolute stereochemistry of such compounds may be identified by methods known in the art. For Table 40 below, n/a represents “not available”.
Rescue EC50 values reported in Table 40 below represent the half-maximal effective concentration for reversal of cell death caused by overexpression of APOL1.

[2] = system: HEK293 clonal cell line overexpressing APOL1 G1; assay: APOL1 G1 HEK293 cell rescue assay (Example B3); conditions: geometric mean of at least 2 runs, † = single run, ¥ = concentration at 50% rescue estimated (no sigmoidal curve)
Protocol: Compounds were also assayed in a HEK293 clonal cell line overexpressing APOL1 G1 by a method similar to that shown in Example B2 above.
Unless otherwise specified, EC50 values are reported as the geometric mean of at least 2 assay runs on separate days. Each run represents the average of a technical replicate, where each compound was assayed twice in the same plate. A superscript † symbol indicates a value from the average of a technical replicate from a single assay run, where each compound was assayed twice in the same plate. A ¥ symbol represents compound concentration at 50% rescue estimated due to lack of sigmoidal curve preventing curve fitting. Compounds in Table 41 are referred to by the corresponding Compound Number in Table 1, which is also referred to in the synthetic examples. When one or more of the numbered compounds are identified by stereochemistry (for example, (R)- or (S)-), the specific stereoisomer for which data is provided in Table 41 may be identified by the elution order of such compound as described in the synthetic examples. Absolute stereochemistry of such compounds may be identified by methods known in the art. For Table 41 below, n/a represents “not available”.
Rescue EC50 values reported in Table 41 below represent the half-maximal effective concentration for reversal of cell death caused by overexpression of APOL1.

[3] = target: T1, APOL1 G2 (Homo sapiens, UniProt O14791, DEL388-389); assay: APOL1-mediated calcium transport (calcium influx) assay, HEK T-REx/GCaMP6f/APOL1 G2 K6.3 cells, FLIPR TETRA; conditions: prevention of calcium influx; geometric mean of at least 2 assay runs; † = average of a technical replicate from a single assay run
T1 construct: expressed in transfected cells; host or cells: HEK293 T-REx clonal line stably expressing GCaMP6f (HEK T-REx/GCaMP6f/APOL1 G2 K6.3), doxycycline induced
T1 sequence (O14791 with tags, fused parts or gaps DEL388-389): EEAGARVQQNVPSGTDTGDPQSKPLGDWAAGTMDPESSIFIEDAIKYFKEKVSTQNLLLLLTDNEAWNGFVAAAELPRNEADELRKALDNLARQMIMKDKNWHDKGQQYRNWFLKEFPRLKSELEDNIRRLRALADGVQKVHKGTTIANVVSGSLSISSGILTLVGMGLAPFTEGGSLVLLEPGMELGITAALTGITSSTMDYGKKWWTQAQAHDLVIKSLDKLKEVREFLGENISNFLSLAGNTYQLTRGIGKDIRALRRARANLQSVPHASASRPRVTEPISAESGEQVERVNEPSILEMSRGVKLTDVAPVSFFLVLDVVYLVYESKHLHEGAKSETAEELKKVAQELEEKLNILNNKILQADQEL
Protocol: A HEK293 clonal cell line was generated to stably express GCaMP6f, a genetically encoded calcium indicator, and inducibly express APOL1 G2 (HEK T-REx/GCaMP6f/APOL1 G2 K6.3). Cells were maintained in the following standard complete medium: DMEM with 4.5 g/L glucose and sodium pyruvate (BioWhittaker, Lonza, BE12-614F), supplemented with 10% FBS Performance Plus (Gibco, 16000044), 1% penicillin-streptomycin (BioWhittaker, DE17-602E), 2 mM ultraglutamine-1 (BioWhittaker cat. BE 17-605/U1), 50 μg/mL Zeocin (InvivoGen, ant-zn), 2.5 μg/mL Blasticidin (InvivoGen, ant-bl-5), and 25 μg/mL Hygromycin (InvivoGen, ant-hg). Standard propagation conditions consisted of plating 9×10^6, 4×10^6, 2×10^6 cells in a T225 flasks to be processed after 2, 3, or 4 days, respectively.
A source plate was generated containing 20 serially diluted compounds in DMSO (duplicate 8-point dose response). Next, 0.8 μL of compounds were transferred from the source plate to a destination plate prefilled with 79.2 μL of Ca^2+ free Tyrode's buffer (130 mM NaCl, 5 mM KCl, 1 mM MgCl2, 5 mM NaHCO3, 20 mM HEPES at pH 7.4). The destination plate was placed on a plate shaker (5 seconds at 2000 rpm) to mix. […] All transfer and mixing steps were conducted with an CyBi®-Well dispenser.
Cells were split by gently washing with DPBS (Euroclone, ECB4004L), followed by a 5-minute incubation (humidified, 37° C. with 5% CO2) with trypsin-EDTA solution (Euroclone, ECB3052D). Detached cells were diluted with standard complete medium without selective agents, counted, and plated in a 384 MTP microplate (GR4332CPL, Twin Helix) (10,000 cells/well in 25 μl/well) using a MATRIX WellMate dispenser. Plates were placed into a humidified incubator (37° C. with 5% CO2) overnight. The following day, 20 μL of doxycycline (Sigma, D9891) at 20 ng/mL in standard complete medium was added to cells with a CyBi® Drop dispenser to induce APOL1 G2 expression. After a 6-hour incubation (humidified, 37° C. with 5% CO2), cells were washed 3 times with Ca^2+ free Tyrode's Buffer (130 mM NaCl, 5 mM KCl, 1 mM MgCl2, 5 mM NaHCO3, 20 mM HEPES at pH 7.4) using a BIOTEK Microplate washer, such that 10 μL of buffer remained in each well after the final wash. Assay plates were then stored at room temperature for 10 minutes. Next, 10 μL of diluted compounds were transferred to the assay plate from the 2× compound plate using a CyBi®-Well dispenser. Compound incubation was then carried out at room temperature for 10 minutes. The assay plate was transferred to the FLIPR^TETRA and 20 μL of 10 mM Ca^2+ (final concentration=5 mM) Tyrode's buffer was injected.
Unless otherwise specified, AC50 and values are reported as the geometric mean of at least 2 assay runs on separate days. Each run represents the average of a technical replicate, where each compound was assayed twice in the same plate. A superscript t symbol indicates a value from the average of a technical replicate from a single assay run, where each compound was assayed twice in the same plate.
The AC50 values in Table 39 below reflect the compound's ability to prevent calcium influx by inhibiting APOL1. […] Compounds in Table 39 are referred to by the corresponding Compound Number in Table 1, which is also referred to in the synthetic examples. When one or more of the numbered compounds are identified by stereochemistry (for example, (R)- or (S)-), the specific stereoisomer for which data is provided in Table 39 may be identified by the elution order of such compound as described in the synthetic examples. For example, Compounds 39 and 40 are associated with Step 5 of Example 13, where Compound 39 is the first eluting enantiomer, and Compound 40 is the second eluting enantiomer in the chiral separation of Compound 38. For Table 39 below, n/a represents “not available”.

[4] = Homo sapiens, HEK293, HEK293 overexpressing APOL1 G2
[5] = Homo sapiens, HEK293, HEK293 clonal line overexpressing APOL1 G1
[6] = HEK293 clonal line overexpressing APOL1 G1

Structure (SMILES) | EC50 [1, 4] [nM] | EC50 [2, 5] [nM] | AC50 [3] [nM] | EC50 ([1]; HEK293 overexpressing APOL1 G2) [nM] | EC50 [2, 6] [nM]
CC(COc1ccc(S(C)(=O)=O)cc1)N1CCC2(CC1)C(=O)N(C1CC(O)C1)c1ccc(Cl)cc12 (mixture of isomers) [Compound 205, 5-chloro-1′-[1-(4-methanesulfonylphenoxy)propan-2-yl]-1-[3-hydroxycyclobutyl]-1,2-dihydrospiro[indole-3,4′-piperidin]-2-one] | 472 | 1760 | 1220 | – | –
C[C@@H](CN1CCC2(CC1)C(=O)Nc1ccc(Cl)cc12)Oc1ccc(S(C)(=O)=O)cc1 (single isomer, unassigned) [Compound 11] | 1700 | 2300 | 1050 | – | –
CC(c1ccc(OCCN2CCC3(CC2)C(=O)Nc2ccc(Cl)cc23)cc1)S(C)(=O)=O (single isomer, unassigned) [Compound 40, 5-chloro-1′-(2-{4-[(1R) or (1S)-1-methanesulfonylethyl]phenoxy}ethyl)-1,2-dihydrospiro[indole-3,4′-piperidin]-2-one] | – | – | 657 | 72 | 294
N#Cc1ccc2c(c1)C1(CCN(CCOc3ccc4c(c3)CCN3C(=O)NCC43)CC1)C(=O)N2 (single isomer, unassigned) [Compound 119, (S) or (R)-2-oxo-1′-[2-({3-oxo-1H,2H,3H,5H,6H,10bH-imidazo[4,3-a]isoquinolin-8-yl}oxy)ethyl]-1,2-dihydrospiro[indole-3,4′-piperidine]-5-carbonitrile] | 435 | ~3400 | 1010 | – | –
N#Cc1ccc2c(c1)C1(CCN(CCOc3ccc4c(c3)CCN3C(=O)CCC43)CC1)C(=O)N2 (single isomer, unassigned) [Compound 125, (S) or (R)-2-oxo-1′-[2-({3-oxo-1H,2H,3H,5H,6H,10bH-pyrrolo[2,1-a]isoquinolin-8-yl}oxy)ethyl]-1,2-dihydrospiro[indole-3,4′-piperidine]-5-carbonitrile] | 355 | – | 729 | – | > 4860
N#Cc1ccc2c(c1)C1(CCN(CCOc3ccc4c(c3)CCN3C(=O)CCC43)CC1)C(=O)N2 (single isomer, unassigned) [Compound 126, (R) or (S)-2-oxo-1′-[2-({3-oxo-1H,2H,3H,5H,6H,10bH-pyrrolo[2,1-a]isoquinolin-8-yl}oxy)ethyl]-1,2-dihydrospiro[indole-3,4′-piperidine]-5-carbonitrile] | – | – | 624 | 273 | 1010
CC(COc1ccc2c(c1)CCC(=O)N2C)N1CCC2(CC1)C(=O)Nc1ccc(Cl)cc12 (single isomer, unassigned) [Compound 201, chloro-1′-[(2R) or (2S)-1-[(1-methyl-2-oxo-1,2,3,4-tetrahydroquinolin-6-yl)oxy]propan-2-yl]-1,2-dihydrospiro[indole-3,4′-piperidin]-2-one] | – | – | 909 | 609 | 4920
C[C@]1(O)C[C@@H](n2c(=O)cc(C(F)(F)F)c3cc(OCCN4CCC5(CC4)C(=O)Nc4ccc(Cl)cc45)cnc32)C1 [Compound 341, 5-chloro-1′-[2-({7-oxo-8-[(cis)-3-hydroxy-3-methylcyclobutyl]-5-(trifluoromethyl)-7,8-dihydro-1,8-naphthyridin-3-yl}oxy)ethyl]-1,2-dihydrospiro[indole-3,4′-piperidin]-2-one] | 41.5 | – | 1060 | – | –
C[C@]1(O)C[C@@H](n2c(=O)cc(C(F)(F)F)c3cc(OCCN4CCC5(CC4)C(=O)Nc4ccc(C(F)F)cc45)cnc32)C1 [Compound 342, 5-(difluoromethyl)-1′-[2-({7-oxo-8-[(cis)-3-hydroxy-3-methylcyclobutyl]-5-(trifluoromethyl)-7,8-dihydro-1,8-naphthyridin-3-yl}oxy)ethyl]-1,2-dihydrospiro[indole-3,4′-piperidin]-2-one] | 90.2 | – | 780 | – | –
C[C@]1(O)C[C@@H](n2cnc3cc(OCCN4CCC5(CC4)C(=O)Nc4ccc(C#N)cc45)cc(F)c32)C1 [Compound 455, 1′-(2-((7-fluoro-1-((cis)-3-hydroxy-3-methylcyclobutyl)-1H-benzo[d]imidazol-5-yl)oxy)ethyl)-2-oxospiro[indoline-3,4′-piperidine]-5-carbonitrile] | 75.3 | – | 1250 | – | –
C[C@]1(O)C[C@@H](n2cnc3nc(OCCN4CCC5(CC4)C(=O)Nc4ccc(Cl)cc45)cc(C(F)(F)F)c32)C1 [Compound 471, 5-chloro-1′-[2-({1-[(cis)-3-hydroxy-3-methylcyclobutyl]-7-(trifluoromethyl)-1H-imidazo[4,5-b]pyridin-5-yl}oxy)ethyl]-1,2-dihydrospiro[indole-3,4′-piperidin]-2-one] | > 3300 | > 3300 | – | – | –
